System: mouse behavior (SmartCube signature)
Assay: SmartCube system behavioral classification (Example 6)
Type: in vivo, Male C57/B16 mice
Conditions: IP
Excerpt: Dexmedetomidine and latrepirdine have anti-psychotic effects, when tested in the SmartCube® system (Psychogenics, Inc., Paramus, NJ; See also U.S. Pat. No. 7,580,798 incorporated herein by reference in its entirety). This system uses features derived from mouse behavioral data to first, classify mice on compound versus vehicle. This measure indicates how well the system can differentiate between a mouse on compound versus a mouse on vehicle. Secondly, by comparing the features to a proprietary reference database of behavioral feature sets that are linked to classes of marketed drugs known to treat neuro-psychiatric symptoms SmartCube® assigns a signature to the behavior. Thus, the system can be used as a model to identify both the activity and the psychiatric effect of a compound by comparing the effects of the compounds against drugs with known validated effects.
By comparing the responses of animals to known drugs, the test drug can be categorized according to its function; for example, hallucinogen, anxiogenic, analgesic, cognitive enhancer, psychostimulant, mood stabilizer, high dose anti-psychotic, anti-psychotic, sedative/hypnotic, anxiolytic, high dose antidepressant, antidepressant.
Once all features are extracted from the raw data through an automated pipeline, proprietary bioinformatics algorithms are used to decorrelate groups of features and find the combination of values that best separate different groups of interest. For each compound, at each dose, they system provides a probability that the drug is active and breaks down such putative activity into the different classes of interest.
SmartCube reference data used herein include anti-psychotics and anti-depressants tested at several dose ranges. “Anti-psychotic” versus “high dose anti-psychotic” as indicated in the legend, reflects the notion that anti-psychotics reference data is dose dependent. Anti-psychotics, when administered at higher doses, can engage additional receptor systems, and thus affect mouse behavior differently. The same applies for different doses of anti-depressants.
Animals: Male C57/B16 mice (N=12 per group) from Taconic Laboratories were used. Upon receipt, mice were group-housed in OPTI mouse ventilated cages with 4 mice per cage. Mice were acclimated to the colony room for at least one week prior to test and subsequently tested at approximately 8-9 weeks of age. All animals were examined, handled, and weighed prior to initiation of the study to assure adequate health and suitability and to minimize non-specific stress associated with manipulation.
All compounds tested were formulated in NP3 (vehicle solution): 5% Pharmasolve; 30% P3 (1:1:1 PEG200: PEG400: propylene glycol); 65% saline; pH is 5.1-6.
Test groups were: • Vehicle: NP3 • Dexmedetomidine at 0.005 and 0.010 mg/kg • Latrepirdine at 1 and 10 mg/kg • Dexmedetomidine and latrepirdine combinations (in mg/kg): 0.005/1.0; 0.005/10; 0.010/1.0; 0.010/10
Test compounds were injected intraperitoneally (IP) for 15 min before animals were placed in SmartCube for assessment.
Antipsychotic: SmartCube classifies the mouse behavior with test compound as similar to treatment with marketed anti-psychotics at therapeutically relevant doses.
High Dose Antipsychotic: SmartCube classifies the mouse behavior on test compound as similar to treatment with marketed anti-psychotics at doses that are considered as high therapeutically. High doses of anti-psychotics often cause sedation.
The results for the class analyses are presented as standardized bar charts with percentages that sum to 100 for each dose. The percentage indicates the probability the classifier can differentiate between the vehicle group and test group. The pattern indicates what class signature was assigned.

Q: Which results are given for Cc1ccc2c(c1)c1c(n2CCc2ccc(C)nc2)CCN(C)C1 [latrepirdine, 2,8-dimethyl-5-[2-(6-methylpyridin-3-yl)ethyl]-3,4-dihydro-1H-pyrido[4,3-b]indole]?
A: SmartCube signature (1 and 10 mg/kg): antipsychotic signature; SmartCube total activity (latrepirdine 1.0 mg/kg): 20%; SmartCube total activity (latrepirdine 10 mg/kg): 80%
